Patent publication US20070197654A1, “COMBINATION OF A CB1 RECEPTOR ANTAGONIST AND OF A PRODUCT WHICH ACTIVATES DOPAMINERGIC NEUROTRANSMISSION IN THE BRAIN, THE PHARMACEUTICAL COMPOSITIONS COMPRISING THEM AND THEIR USE IN THE TREATMENT OF PARKINSON'S DISEASE” (AVENTIS PHARMA S.A., priority 2001, published 2007)
Marks after values point to notes of the source that are not given here.

What was measured:
Format in all cases: in vivo
[1] = system: Reserpine-treated rats; assay: Reserpine-treated rat, dyskinesia model: locomotor activity, CB1 antagonist ip combined with strong dose of levodopa; conditions: CB1 antagonist 1 mg/kg i.p.; levodopa 120 mg/kg + benserazide 50 mg/kg i.p.; locomotion recorded 2.5 hours
Protocol: (§1) The synergistic effect of the combination of one or more products which activate dopaminergic neurotransmission in the brain and of one or more CB1 antagonists in the treatment of Parkinson's disease was determined in a model of akinesia induced by reserpine in the rat according to the following protocol:
(§2) Male Sprague-Dawley rats were treated with reserpine administered subcutaneously at a dose of 3 mg/kg (1 ml/kg) in order to induce akinesia in the animal. 18 hours after this treatment, the locomotor activity of these animals was measured and recorded using an automatic system (Videotrack, France). The locomotion, expressed in centimeters, is estimated by a mean overall distance covered during this period (n=11-38 rats per group). The statistical analysis is carried out by variance analysis and a post-hoc comparison (if appropriate) using a Mann-Whitney or Dunnett test. A significant effect is recorded for p<0.05.
(§3) The results for the ip administration of the CB1 antagonist (Table 1) are expressed as percentage of increase with respect to the activity of quinpirole and as percentage of decrease with respect to the activity of a very strong dose of levodopa.
The combination of the CB1 receptor antagonist and of a strong dose of levodopa (dyskinesia model) is produced in the following way: […]

[2] = system: Reserpine-treated rats; assay: Reserpine-induced akinesia in the rat: locomotor activity, CB1 antagonist ip combined with quinpirole; conditions: CB1 antagonist 1 mg/kg i.p., locomotion recorded 1 hour
Protocol: as §1, §2, §3
The combination of a CB1 receptor antagonist and of a D2 dopaminergic agonist (quinpirole) is produced in the following way: […]

[3] = system: Reserpine-treated rats; assay: Reserpine-induced akinesia in the rat: locomotor activity, CB1 antagonist po combined with quinpirole; conditions: locomotion recorded 1 hour
Protocol: as §1, §2
(§4) The studies by the oral route are carried out in a hydrophobic formulation solvent Labrafil/Labrasol (40/60%, w/w). These products are administered (in a volume of 1 ml/kg) one hour before the dopaminergic agonist. The recording of the locomotor activity begins 5 min after the intraperitoneal injection of the dopaminergic agonist and lasts 1 hour. The D1 dopaminergic agonist is 0.3 mg/kg C1-APB. The D2 dopaminergic agonist is 0.1 mg/kg quinpirole.
(§5) The results for the po administration of the CB1 antagonist at three different doses (1, 3 and 10 mg/kg/po) (Table 2) are expressed as percentage of increase with respect to the activity of quinpirole and a percentage of decrease with respect to the activity of a strong dose of C1-APB (SKF 82958).

[4] = system: Reserpine-treated rats; assay: Reserpine-treated rat: locomotor activity, CB1 antagonist po combined with strong dose of C1-APB (SKF 82958); conditions: locomotion recorded 1 hour
Protocol: as §1, §2, §4, §5

Cc1c(C(=O)NN2CCCCC2)nn(-c2ccc(Cl)cc2Cl)c1-c1ccc(Cl)cc1.Cl [SR141716A, N-(piperidin-1-yl)-5-(4-chlorophenyl)-1-(2,4-dichlorophenyl)-4-methyl-1H-pyrazole-3-carboxamide hydrochloride]
Combination with levodopa (120 mg/kg ip): percentage of decrease with respect to the activity of a very strong dose of levodopa [1]: −61%* | Combination with quinpirole (62.5 μg/kg ip): percentage of increase with respect to the activity of quinpirole [2]: +116%*** | Combination with quinpirole (0.1 mg/kg ip): percentage of increase with respect to the activity of quinpirole ([3]; CB1 antagonist 1 mg/kg po one hour before quinpirole): +57%* NS | Combination with quinpirole (0.1 mg/kg ip): percentage of increase with respect to the activity of quinpirole ([3]; CB1 antagonist 3 mg/kg po one hour before quinpirole): +121%** | Combination with quinpirole (0.1 mg/kg ip): percentage of increase with respect to the activity of quinpirole ([3]; CB1 antagonist 10 mg/kg po one hour before quinpirole): +87%** | Combination with C1-APB (0.3 mg/kg ip): percentage of decrease with respect to the activity of a strong dose of C1-APB ([4]; CB1 antagonist 1 mg/kg po one hour before C1-APB): −32% NS | Combination with C1-APB (0.3 mg/kg ip): percentage of decrease with respect to the activity of a strong dose of C1-APB ([4]; CB1 antagonist 3 mg/kg po one hour before C1-APB): −58%* | Combination with C1-APB (0.3 mg/kg ip): percentage of decrease with respect to the activity of a strong dose of C1-APB ([4]; CB1 antagonist 10 mg/kg po one hour before C1-APB): −82%**
